The values below come from patent publication US12404275B2, “Pyrazolopyrazine derived compounds, pharmaceutical composition and use thereof” (PrimeGene (Beijing) Co., Ltd., priority 2019, dated 2025).

Assay type in all cases: biochemical
Assay [1] deals with Tyk2 (Homo sapiens, UniProt P29597). In words: Mobility shift assay, inhibitory activity on Tyk2 kinase. Particulars: mobility shift assay; Tyk2 2.5 nM; ATP 1 mM; 3 μM Kinase Substrate 30. On the procedure:
(§1) Inhibitory Activities of the Compounds on JAK1, JAK2, JAK3 and Tyk2 (IC50)
(§2) The inhibitory activity of compounds on JAK family kinase was analyzed with Mobility shift assay. The screening platform is MSA based microfluidic chip technology, which applies the basic concept of capillary electrophoresis to microfluidic environment. The substrate used in the experiment is a poly-peptide labeled with fluorescent. Under the catalysis of kinase in the reaction system, the substrate is transformed into a product, with the charge changed accordingly. MSA technology could detect the substrate and the product with different charge separately.
(§3) A compound (powder) was dissolved in 100% DMSO to prepare a 10 mM storage solution. […] Detection in duplicate. Baricitinib (Selleckchem, Cat. S2851) was used as positive control. The serially diluted compound was mixed with JAK1/JAK2/JAK3/Tyk2 kinase (Cama, Cat. 08-144/08-045/08-046/08-147) with final concentration of 5 nM/0.125 nM/0.5 nM/2.5 nM in a Optiplate-384F plate and incubated at room temperature for 10 minutes. After that, ATP with final concentration of 1 mM and 3 μM Kinase Substrate 30 (GL Biochem, Cat. 117885) were added and mixed well. The reaction was carried out at room temperature for 20 min. Stop test solution was added to stop the reaction and the conversion rate was read by Caliper EZ Reader II.
(§4) Conversion %_sample: the conversion rate reading of the sample;
(§5) Conversion %_min: mean value of negative control, representing the conversion rate reading without kinase activity;
(§6) Coversion %_max: mean value of positive control, representing the conversion rate reading without compound inhibition.

For assay [2], the system named is Tyk2. Described as above. As to conditions: ratio of JAK2 IC50 to TyK2 IC50. As for the experimental part: as §1, §2, §3, §4, §5, §6
Assay [3] has as its target JAK2 (Homo sapiens, UniProt O60674). In words: Mobility shift assay, inhibitory activity on JAK2 kinase. Particulars: JAK2 0.125 nM, ATP 1 mM, 3 μM Kinase Substrate 30. On the procedure:
as §1, §2, §3, §4, §5, §6

For `Cn1cc(-c2cn3nccc3c(-c3cn(C4(CC#N)CN(CC#N)C4)nc3N)n2)cn1` [Example 1, 2,2′-(3-(3-amino-4-(6-(1-methyl-1H-pyrazol-4-yl)pyrazolo[1,5-a]pyrazine-4-yl)-1H-pyrazol-1-yl)azetidine-1,3-diyl)diacetonitrile], the half-maximal inhibitory concentration (IC50) in assay [1] is 0.42 nM; in assay [3], 88 nM. Also, the “Selectivity of JAK2/TyK2” value in assay [2] is recorded as 210.
Taken in the same sequence, the figures for `CCS(=O)(=O)N1CC(CC#N)(n2cc(-c3nc(-c4cnn(C)c4)cn4nccc34)c(N)n2)C1` [Example 2, 2-(3-(3-amino-4-(6-(1-methyl-TH-pyrazol-4-yl)pyrazolo[1,5-a]pyrazin-4-yl)-1H-pyrazol-1-yl)-1-(ethylsulfonyl)azetidin-3-yl)acetonitrile] were 0.38 nM, 64 nM and 168.
Regarding `CC(C)S(=O)(=O)N1CC(CC#N)(n2cc(-c3nc(-c4cnn(C)c4)cn4nccc34)c(N)n2)C1` [Example 3, 2-(3-(3-amino-4-(6-(1-methyl-1H-pyrazol-4-yl)pyrazolo[1,5-a]pyrazin-4-yl)-1H-pyrazol-1-yl)-1-(isopropylsulfonyl)azetidin-3-yl)acetonitrile], the figures for the IC50 in assay [1] and in assay [3] were 2.1 nM and 77 nM, respectively. For the same molecule, the “Selectivity of JAK2/TyK2” value in assay [2] is on record as 36.6.
Turning to `CC(C)S(=O)(=O)N1CC(CC#N)(n2cc(-c3nc(-c4cnn(C)c4)cn4ncc(C#N)c34)c(N)n2)C1` [Example 4, 4-(3-amino-1-(3-(cyanomethyl)-1-(isopropylsulfonyl)azetidin-3-yl)-1H-pyrazol-4-yl)-6-(1-methyl-1H-pyrazol-4-yl)pyrazolo[1,5-a]pyrazine-3-carbonitrile], the IC50 in assay [1] amounted to 1760 nM.
On to `Cn1cc(-c2cn3nccc3c(-c3cn([C@]4(CC#N)C[C@@H](C#N)C4)nc3N)n2)cn1` [Example 9, (1r,3r)-3-(3-amino-4-(6-(1-methyl-1H-pyrazol-4-yl)pyrazolo[1,5-a]pyrazin-4-yl)-1H-pyrazol-1-yl)-3-(cyanomethyl)cyclobutyl-1-carbonitrile], for which the IC50 in assay [1] worked out at 0.17 nM; in assay [3], 14 nM.
Taken in the same sequence, the figures for `Cn1cc(-c2cn3nccc3c(-c3cn([C@]4(CC#N)C[C@H](C#N)C4)nc3N)n2)cn1` [Example 10, (1s,3s)-3-(3-amino-4-(6-(1-methyl-1H-pyrazol-4-yl)pyrazolo[1,5-a]pyrazin-4-yl)-1H-pyrazol-1-yl)-3-(cyanomethyl)cyclobutyl-1-carbonitrile] were 0.13 nM and 0.25 nM.
For `CNc1nn([C@]2(CC#N)C[C@@H](C#N)C2)cc1-c1nc(-c2cnn(C)c2)cn2nccc12` [Example 38, (1r,3r)-3-(cyanomethyl)-3-(4-(6-(1-methyl-1H-pyrazol-4-yl)pyrazolo[1,5-a]pyrazin-4-yl)-3-(methylamino)-1H-pyrazol-1-yl)cyclobutane-1-carbonitrile], the concentration for half-maximal inhibition (IC50) in assay [1] was 0.33 nM; in assay [3] it was 6.7 nM. For the same molecule, the “Selectivity of JAK2/TyK2” value in assay [2] was determined as 20.
For the molecule `CN(C)c1nn([C@]2(CC#N)C[C@@H](C#N)C2)cc1-c1nc(-c2cnn(C)c2)cn2nccc12` [Example 39, (1r,3r)-3-(cyanomethyl)-3-(3-(dimethylamino)-4-(6-(1-methyl-1H-pyrazol-4-yl)pyrazolo[1,5-a]pyrazin-4-yl)-1H-pyrazol-1-yl)cyclobutane-1-carbonitrile], the values for the IC50 in assay [1] and in assay [3] were 3.7 nM and 200 nM, respectively. Also, the “Selectivity of JAK2/TyK2” value in assay [2] was found to be 54.
With `CC(=O)Nc1nn([C@]2(CC#N)C[C@@H](C#N)C2)cc1-c1nc(-c2cnn(C)c2)cn2nccc12` [Example 40, N-(1-((1r,3r)-3-cyano-1-(cyanomethyl)cyclobutyl)-4-(6-(1-methyl-1H-pyrazol-4-yl)pyrazolo[1,5-a]pyrazin-4-yl)-1H-pyrazol-3-yl)acetamide], the 50% inhibitory concentration (IC50) in assay [1] worked out at 139 nM.
On the same count and under the same terms, under `Cn1cc(-c2cn3ncnc3c(-c3cn([C@]4(CC#N)C[C@@H](C#N)C4)nc3N)n2)cn1` [Example 41, (1r,3r)-3-(3-amino-4-(6-(1-methyl-1H-pyrazol-4-yl)-[1,2,4]triazolo[1,5-a)pyrazin-8-yl)-1H-pyrazol-1-yl)-3-(cyanomethyl)cyclobutane-1-carbonitrile] stands 37 nM.
The same measure, in the same setting: next, `Cn1cc(-c2cc(-c3cn([C@]4(CC#N)C[C@@H](C#N)C4)nc3N)c3ccnn3c2)cn1` [Example 42, (1r,3r)-3-(3-amino-4-(6-(1-methyl-1H-pyrazol-4-yl)pyrazolo[1,5-a]pyridin-4-yl)-1H-pyrazol-1-yl)-3-(cyanomethyl)cyclobutane-1-carbonitrile]: 375 nM; `Cn1cc(-c2cc(-c3cn([C@]4(CC#N)C[C@H](C#N)C4)nc3N)c3ccnn3c2)cn1` [Example 43, (is, 3s)-3-(3-amino-4-(6-(1-methyl-TH-pyrazol-4-yl)pyrazolo[1,5-a]pyridin-4-yl)-1H-pyrazol-1-yl)-3-(cyanomethyl)cyclobutane-1-carbonitrile]: 43 nM.
Same read-out and setting: next, `Cn1cc(-c2cn3nccc3c(-c3cn([C@]4(CC#N)C[C@H](C#N)C4)c4ccncc34)n2)cn1` [Example 47, (1s,3s)-3-(cyanomethyl)-3-(3-(6-(1-methyl-1H-pyrazol-4-yl)pyrazolo[1,5-a]pyrazin-4-yl)-1H-pyrrolo[3,2-c]pyridin-1-yl)cyclobutane-1-carbonitrile]: 186 nM.
Regarding `Cn1cc(-c2cn3nccc3c(-c3cn([C@]4(CC#N)C[C@@H](C#N)C4)c4ccncc34)n2)cn1` [Example 48, (1r,3r)-3-(cyanomethyl)-3-(3-(6-(1-methyl-1H-pyrazol-4-yl)pyrazolo[1,5-a]pyrazin-4-yl)-1H-pyrrolo[3,2-c]pyridin-1-yl)cyclobutane-1-carbonitrile], the IC50 in assay [1] came to 0.36 nM; in assay [3], 8.1 nM. Moreover, the “Selectivity of JAK2/TyK2” value in assay [2] is 22.5.
`Cn1cc(-c2cn3nccc3c(-c3cn([C@]4(CC#N)C[C@H](C#N)C4)c4ncncc34)n2)cn1` [Example 49, (1s,3s)-3-(cyanomethyl)-3-(5-(6-(1-methyl-1H-pyrazol-4-yl)pyrazolo[1,5-a]pyrazin-4-yl)-7H-pyrrolo[2,3-d]pyrimidin-7-yl)cyclobutane-1-carbonitrile]: the IC50 in assay [1] turned out to be 118 nM.
Consider `Cn1cc(-c2cn3nccc3c(-c3cn([C@]4(CC#N)C[C@H](C#N)C4)c4ncncc34)n2)cn1` [Example 50, (1r,3r)-3-(cyanomethyl)-3-(5-(6-(1-methyl-1H-pyrazol-4-yl)pyrazolo[1,5-a]pyrazin-4-yl)-7H-pyrrolo[2,3-d]pyrimidin-7-yl)cyclobutane-1-carbonitrile], for which the figures for the concentration for half-maximal inhibition (IC50) in assay [1] and in assay [3] were 0.41 nM and 10 nM, respectively. For the same molecule, the “Selectivity of JAK2/TyK2” value in assay [2] came out at 24.4.

The IC50 is the midpoint of a concentration-inhibition curve.
